Test: xn = mol fraction of the nth substance listed
Conditions: 101 kPa, Liquid, Vibrating tube method

NC=O [formamide] + O
Conditions	mass density [kg/m3]
274.15 K, x1 = 0.00244	1001.03
274.15 K, x1 = 0.00515	1002.28
274.15 K, x1 = 0.0086	1003.85
274.15 K, x1 = 0.02032	1009
274.15 K, x1 = 0.03478	1014.99
274.15 K, x1 = 0.04976	1020.81
274.15 K, x1 = 0.06674	1026.93
274.15 K, x1 = 0.08229	1032.24
274.15 K, x1 = 0.1171	1043.06
275.15 K, x1 = 0.00244	1001.06
275.15 K, x1 = 0.00515	1002.29
275.15 K, x1 = 0.0086	1003.84
275.15 K, x1 = 0.02032	1008.93
275.15 K, x1 = 0.03478	1014.85
275.15 K, x1 = 0.04976	1020.62
275.15 K, x1 = 0.06674	1026.67
275.15 K, x1 = 0.08229	1031.93
275.15 K, x1 = 0.1171	1042.67
276.15 K, x1 = 0.00244	1001.07
276.15 K, x1 = 0.00515	1002.28
276.15 K, x1 = 0.0086	1003.81
276.15 K, x1 = 0.02032	1008.85
276.15 K, x1 = 0.03478	1014.7
276.15 K, x1 = 0.04976	1020.4
276.15 K, x1 = 0.06674	1026.42
276.15 K, x1 = 0.08229	1031.63
276.15 K, x1 = 0.1171	1042.28
277.15 K, x1 = 0.00244	1001.06
277.15 K, x1 = 0.00515	1002.26
277.15 K, x1 = 0.0086	1003.77
277.15 K, x1 = 0.02032	1008.75
277.15 K, x1 = 0.03478	1014.54
277.15 K, x1 = 0.04976	1020.19
277.15 K, x1 = 0.06674	1026.14
277.15 K, x1 = 0.08229	1031.3
277.15 K, x1 = 0.1171	1041.88
278.15 K, x1 = 0.00244	1001.04
278.15 K, x1 = 0.00515	1002.23
278.15 K, x1 = 0.0086	1003.72
278.15 K, x1 = 0.02032	1008.64
278.15 K, x1 = 0.03478	1014.37
278.15 K, x1 = 0.04976	1019.96
278.15 K, x1 = 0.06674	1025.86
278.15 K, x1 = 0.08229	1030.99
278.15 K, x1 = 0.1171	1041.47
278.15 K, x1 = 0.1745	1056.3
278.15 K, x1 = 0.2169	1065.71
278.15 K, x1 = 0.2557	1073.39
278.15 K, x1 = 0.3026	1081.73
278.15 K, x1 = 0.351	1089.33
278.15 K, x1 = 0.4027	1096.66
278.15 K, x1 = 0.4487	1102.5
278.15 K, x1 = 0.4886	1107.05
278.15 K, x1 = 0.5601	1114.6
278.15 K, x1 = 0.5916	1117.67
278.15 K, x1 = 0.6674	1124.31
278.15 K, x1 = 0.7066	1127.46
278.15 K, x1 = 0.7495	1130.64
278.15 K, x1 = 0.7931	1133.73
278.15 K, x1 = 0.8601	1138.23
278.15 K, x1 = 0.8996	1140.73
278.15 K, x1 = 0.948	1143.61
278.15 K, x1 = 0.9753	1145.18
278.15 K, x1 = 0.9847	1145.72
278.15 K, x1 = 0.9897	1146.01
278.15 K, x1 = 0.9959	1146.38
278.15 K, x1 = 1	1146.62
279.15 K, x1 = 0.00244	1001
279.15 K, x1 = 0.00515	1002.18
279.15 K, x1 = 0.0086	1003.65
279.15 K, x1 = 0.02032	1008.52
279.15 K, x1 = 0.03478	1014.19
279.15 K, x1 = 0.04976	1019.74
279.15 K, x1 = 0.06674	1025.57
279.15 K, x1 = 0.08229	1030.68
279.15 K, x1 = 0.1171	1041.07
280.15 K, x1 = 0.00244	1000.95
280.15 K, x1 = 0.00515	1002.11
280.15 K, x1 = 0.0086	1003.57
280.15 K, x1 = 0.02032	1008.39
280.15 K, x1 = 0.03478	1014
280.15 K, x1 = 0.04976	1019.49
280.15 K, x1 = 0.06674	1025.28
280.15 K, x1 = 0.08229	1030.32
280.15 K, x1 = 0.1171	1040.65
281.15 K, x1 = 0.00244	1000.89
281.15 K, x1 = 0.00515	1002.04
281.15 K, x1 = 0.0086	1003.47
281.15 K, x1 = 0.02032	1008.25
281.15 K, x1 = 0.03478	1013.8
281.15 K, x1 = 0.04976	1019.23
281.15 K, x1 = 0.06674	1024.97
281.15 K, x1 = 0.08229	1029.97
281.15 K, x1 = 0.1171	1040.23
282.15 K, x1 = 0.00244	1000.81
282.15 K, x1 = 0.00515	1001.94
282.15 K, x1 = 0.0086	1003.37
282.15 K, x1 = 0.02032	1008.09
282.15 K, x1 = 0.03478	1013.58
282.15 K, x1 = 0.04976	1018.97
282.15 K, x1 = 0.06674	1024.66
282.15 K, x1 = 0.08229	1029.6
282.15 K, x1 = 0.1171	1039.81
283.15 K, x1 = 0.00244	1000.72
283.15 K, x1 = 0.00515	1001.84
283.15 K, x1 = 0.0086	1003.25
283.15 K, x1 = 0.02032	1007.94
283.15 K, x1 = 0.03478	1013.36
283.15 K, x1 = 0.04976	1018.7
283.15 K, x1 = 0.06674	1024.35
283.15 K, x1 = 0.08229	1029.24
283.15 K, x1 = 0.1171	1039.36
288.15 K, x1 = 0.00244	1000.07
288.15 K, x1 = 0.00515	1001.13
288.15 K, x1 = 0.0086	1002.47
288.15 K, x1 = 0.02032	1006.89
288.15 K, x1 = 0.03478	1012.11
288.15 K, x1 = 0.04976	1017.23
288.15 K, x1 = 0.06674	1022.65
288.15 K, x1 = 0.08229	1027.38
288.15 K, x1 = 0.1171	1037.14
288.15 K, x1 = 0.1745	1051.09
288.15 K, x1 = 0.2169	1059.95
288.15 K, x1 = 0.2557	1067.27
288.15 K, x1 = 0.3026	1075.25
288.15 K, x1 = 0.351	1082.54
288.15 K, x1 = 0.4027	1089.57
288.15 K, x1 = 0.4487	1095.2
288.15 K, x1 = 0.4886	1099.61
288.15 K, x1 = 0.5601	1106.92
288.15 K, x1 = 0.5916	1109.89
288.15 K, x1 = 0.6674	1116.35
288.15 K, x1 = 0.7066	1119.42

Reference: the NIST ThermoML archive (doi:10.1021/acs.jced.6b00786)
